From ChEMBL document CHEMBL2158001, “Lead optimization studies towards the discovery of novel carbamates as potent AChE inhibitors for the potential treatment of Alzheimer's disease” (Bioorg Med Chem, 2012) come the findings set out here.

This assay concerns the target T1, Acetylcholinesterase (Mus musculus, UniProt P21836).
T1 sequence (P21836 whole entry): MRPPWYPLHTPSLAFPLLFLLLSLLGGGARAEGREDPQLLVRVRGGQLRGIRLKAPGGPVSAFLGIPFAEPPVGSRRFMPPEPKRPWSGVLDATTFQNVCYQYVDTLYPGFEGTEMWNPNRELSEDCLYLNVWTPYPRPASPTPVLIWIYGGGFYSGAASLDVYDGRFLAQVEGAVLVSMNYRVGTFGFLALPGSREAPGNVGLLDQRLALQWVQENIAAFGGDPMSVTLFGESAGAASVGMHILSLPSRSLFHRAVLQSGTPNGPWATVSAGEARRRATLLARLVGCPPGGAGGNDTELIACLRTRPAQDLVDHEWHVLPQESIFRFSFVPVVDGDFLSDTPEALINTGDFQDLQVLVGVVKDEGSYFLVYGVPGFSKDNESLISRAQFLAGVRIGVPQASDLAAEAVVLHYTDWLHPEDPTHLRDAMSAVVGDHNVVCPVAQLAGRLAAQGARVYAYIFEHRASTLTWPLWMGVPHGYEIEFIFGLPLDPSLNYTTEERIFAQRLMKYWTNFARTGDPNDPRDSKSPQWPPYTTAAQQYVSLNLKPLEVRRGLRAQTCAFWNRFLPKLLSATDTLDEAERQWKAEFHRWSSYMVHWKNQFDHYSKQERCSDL
Description: Inhibition of Swiss albino mouse RBC AChE after 30 mins by Ellman method
As usually defined, the IC50 is the concentration that gives 50% inhibition. Consider `O=C(Nc1ccccc1Cl)Oc1ccc2c(c1)CCCN2Cc1ccc(Cl)cc1Cl`, for which the IC50 was determined as 11.9 µM.

`Cc1ccccc1NC(=O)Oc1ccc2c(c1)CCCN2Cc1ccc(Cl)cc1Cl` yielded an IC50 of 2.57 µM.

`Cc1cccc(NC(=O)Oc2ccc3c(c2)CCCN3Cc2ccccc2)c1` yielded an IC50 of 60.2 µM.

`Cc1ccccc1NC(=O)Oc1ccc2c(c1)CCCN2Cc1ccccc1` had an IC50 of 14.3 µM.

On to `CCCCCCCCNC(=O)Oc1ccc2c(c1)CCCN2Cc1ccc(Cl)cc1Cl`, for which the IC50 was greater than 10000 µM.

As for `O=C(Nc1cccc(Cl)c1)Oc1ccc2c(c1)CCCN2Cc1ccc(Cl)cc1Cl`, the IC50 was 211 µM.

`CCCCCCCNC(=O)Oc1ccc2c(c1)CCCN2Cc1ccc(Cl)cc1Cl` had an IC50 of 105 µM.

`Cc1ccc(NC(=O)Oc2ccc3c(c2)CCCN3Cc2ccc(Cl)cc2Cl)cc1` gave an IC50 of 851 µM.

Molecule `O=C(Nc1ccc(F)cc1)Oc1ccc2c(c1)CCCN2Cc1ccc(Cl)cc1Cl` returned an IC50 of 89.4 µM.

In the case of `O=C(Nc1ccccc1F)Oc1ccc2c(c1)CCCN2Cc1ccc(Cl)cc1Cl`, 2.56 µM corresponded to half-maximal inhibition (IC50).

`COc1ccccc1NC(=O)Oc1ccc2c(c1)CCCN2Cc1ccc(Cl)cc1Cl` showed an IC50 of 13.8 µM.

The molecule `O=C(Nc1cccc(Br)c1)Oc1ccc2c(c1)CCCN2Cc1ccc(Cl)cc1Cl` registered an IC50 of 140 µM.

For the molecule `Cc1cccc(NC(=O)Oc2ccc3c(c2)CCCN3Cc2ccc(Cl)cc2Cl)c1`, half-maximal inhibition (IC50) was put at 0.7 µM.

`CCCCCCNC(=O)Oc1ccc2c(c1)CCCN2Cc1ccc(Cl)cc1Cl` yielded an IC50 of 14.1 µM.

`O=C(Nc1ccc(Cl)cc1)Oc1ccc2c(c1)CCCN2Cc1ccc(Cl)cc1Cl` returned a concentration for half-maximal inhibition (IC50) of 3480 µM.
